Key:
[1] = system: Sprague Dawley or Zucker Diabetic Fatty rats; assay: Rat IV Glucose (1 g/kg) Tolerance Test; format: in vivo; conditions: for Insulin Change AUC: 0-15 min
Method: a) Glucose Tolerance Tests
Experiments were conducted in overnight-fasted, conscious, male Sprague Dawley (Charles River) or Zucker Diabetic Fatty (Genetic Models, Inc.) rats weighing approximately 250 (Sprague Dawley rats) or 300 (Zucker Diabetic Fatty rats) grams. Four to five days prior the study, rats were anesthetized with isoflurane, and a polyethylene (PE50) catheter was inserted into the right jugular vein. The catheter was secured with a wound clip, filled with saline containing heparin (2% sodium heparin), and closed with a small stainless steel plug.
After a sixteen-hour fast, twelve chronically cannulated rats were separated into four groups of three rats per group. 0.4 ml of blood was taken from the tail vein, collected into a microtainer tube containing lithium heparin, and immediately placed on ice (zero minute sample). A glucose bolus (1.0 g/kg; 50% glucose (w/v) in water) was administered via the indwelling jugular cannula, and the cannula was rinsed with 200 μl of saline. Twenty seconds later a bolus of test substance 100 μl/100 g body weight of either vehicle (saline containing 0.3% (w/v) bovine serum albumin) or vehicle containing analog! was administered through the jugular cannula, and the cannula was rinsed as before. Rats were bled from the tail again at 2, 5, 10, 20 and 30 minutes after the administration of the glucose bolus, and the samples were treated as described above. At the end of the experiment, blood samples were centrifuged, and the plasma was collected.
Plasma glucose concentrations were determined the day of the experiment using a coupled hexokinase procedure in a clinical chemistry analyzer. Plasma for insulin determinations were diluted with zero calibrator and frozen at -20° C. until time for analysis. Insulin concentrations were determined using a commercial radioimmunoassay kit with rat insulin as the standard.
Insulin change (the change in insulin from the baseline value) was calculated as the difference between the insulin concentration at time t and the insulin concentration at zero time. The area under the insulin change curve was calculated using the trapezoidal rule. Plasma glucose change (the increase in plasma glucose above the baseline value) was calculated as the difference between the plasma glucose concentration at time t and the plasma glucose concentration at zero time. The area under the plasma glucose change curve was calculated using the trapezoidal rule. Values are listed as the mean ± the standard error of the mean (SEM).

[2] = system: beagles; assay: Dog I.V. Hyperglycemic (150 mg/dl) Clamp Test; format: in vivo; conditions: I.V. 1.0 μg/kg
Method: a) Hyperglycemic Clamp Studies
Experiments were conducted in overnight-fasted, conscious, adult (1-2 years of age) male and female beagles weighing 8-15 kg. At least ten days prior to the study, animals were anesthetized with isoflurane, and a cut-down was made in the left or right inguinal region. Silastic catheters were inserted into the femoral artery and the proximal caudal femoral vein and secured with 4-0 silk suture. The free ends of the catheters were passed subcutaneously to the back using a trocar needle. The catheters were then filled with a glycerol/heparin solution (3:1, v/v; final heparin concentration of 250 KIU/ml), and the free ends were knotted and placed in a subcutaneous pocket to allow complete closure of the skin. Keflex® was administered both pre-operatively (20 mg/kg, IV and 20 mg/kg, I.M.) and post-operatively (250 mg, p.o. once daily for seven days) to prevent infections. Torbugesic (1.5 mg/kg, I.M.) was administered post-operativelyto control pain.
Blood was drawn just prior to the study day to determine the health of the animal. Only animals with hematocrits above 38% and leukocyte counts below 16,000/mm^3 were used.
The afternoon before the experiment, the free ends of the catheters were exteriorized from the subcutaneous pocket through a small incision made under local anesthesia (2% lidocaine), and the dog was fitted with a tether system jacket and collar assembly.
The morning of the experiment, the contents of the catheters were aspirated, the catheters were flushed with saline, and extension lines (protected by a stainless steel tether) were attached to the catheters. On mornings of IV injection experiments, an over-the-needle, teflon catheter was inserted percutaneously into a cephalic vein in preparation for the administration of an IV bolus of test substance. The dog was placed in a metabolic cage, and the catheter extension lines and tether were attached to a swivel system to allow the dog to move freely about the cage. At this time (-60 minutes), an exogenous infusion of glucose (50% w/v in water) was begun through the chronic venous catheter. Glucose was infused in a descending stepwise fashion over the first six minutes of the study to rapidly raise the plasma glucose concentration to 150 mg/dl. Plasma glucose concentrations were determined every 2.5 to 7.5 minutes throughout the remainder of the study, and the glucose infusion rate was adjusted appropriately to maintain the plasma glucose concentration at 150 mg/dl.
Sixty minutes after the start of the glucose infusion (time 0), test substance was administered either intravenously (1.0, 2.9, 5.0 or 10.0 μg/kg; dose dissolved in 2 ml of saline containing 0.3% dog albumin, w/v) through the previously inserted teflon catheter or subcutaneously (10 μg/kg; 150 μM in phosphate buffered saline) in the dorsal aspect of the neck.
Arterial blood samples (3.5 ml) were taken at -30, -15, 0, 2.5, 5, 7.5, 10, 12.5, 15, 20, 30, 45, 60, 75, 90, 105 and 120 minutes during the IV studies and at -30, -15, 0, 3, 6, 9, 12, 15, 20, 30, 45, 60, 75, 90, 105 and 120 minutes during the SC studies. Samples were collected in vacuum blood collection tubes containing disodium EDTA and immediately placed on ice. To prevent proteolytic cleavage of GLP-1(7-37) in the plasma samples, 1.5 ml of the EDTA containing blood were transferred to a polypropylene tube containing 40 μl of aprotinin (10,000 KIU/ml) and mixed well. The samples were centrifuged, and the resulting plasma was transferred to polypropylene test tubes and stored on ice for the duration of the study.
At the conclusion of the experiment, the animal was anesthetized (isoflurane); the catheters were flushed with fresh saline and filled with the glycerol/heparin mixture; the free ends of the catheters were knotted and placed subcutaneously as described earlier; and antibiotic was administered (300 mg Keflex®, I.M.). […]

Substance	Insulin Change at 10 min ([1]; IV dose 0.6 mg/kg) [ng/mL]	Max Insulin Change ([1]; IV dose 0.6 mg/kg) [ng/mL]	Insulin Change AUC ([1]; IV dose 0.6 mg/kg) [ng·min/mL]	Insulin Change at 10 min ([1]; IV dose 0.92 mg/kg) [ng/mL]	Max Insulin Change ([1]; IV dose 0.92 mg/kg) [ng/mL]	Insulin Change AUC ([1]; IV dose 0.92 mg/kg) [ng·min/mL]	Insulin Change at 10 min ([1]; IV dose 1.2 mg/kg) [ng/mL]	Max Insulin Change ([1]; IV dose 1.2 mg/kg) [ng/mL]	Insulin Change AUC ([1]; IV dose 1.2 mg/kg) [ng·min/mL]	GIR Change AUC ([2]; 0-60 min, mean ± SEM) [mg/kg]	Insulin Change AUC ([2]; 0-60 min, mean ± SEM) [ng·min/mL]	Max Insulin Change ([2]; 120 minute test period, mean ± SEM) [ng/mL]	Duration of Insulin Effect ([2]; time average insulin change consistently ≥0.5 ng/ml) [min]
GLP-1(7-37)OH	5.4	7.8	79 ± 8	3.5	8.4	75 ± 12	4.2	8.4	77 ± 17	–	–	–	–
Lys^34 -N^ε -octanoyl-GLP-1(7-37)OH [Lys^34-N^ε-octanoyl-GLP-1(7-37)OH]	1.3	5.0	33 ± 8	–	–	–	10.0	13.1	136 ± 30	463 ± 12	50 ± 2	3.8 ± 1.0	15

— patent US5512549A, “Glucagon-like insulinotropic peptide analogs, compositions, and methods of use” (Eli Lilly and Company, priority 1994, dated 1996)
